The values that follow come from patent US20090036434A1, “Substituted aryl and heteroaryl derivatives as modulators of metabolism and the prophylaxis and treatment of disorders related thereto” (Arena Pharmaceuticals, Inc., priority 2004, published 2009).

For experiment [1], the target named is T1, RUP3 (Homo sapiens, UniProt Q8TDV5).
T1 construct: expressed in transfected cells; host or cells: melanophores (cultured per Potenza and Lerner 1992), electroporated with the RUP3 expression vector (pCMV)
T1 sequence (Q8TDV5 1-335): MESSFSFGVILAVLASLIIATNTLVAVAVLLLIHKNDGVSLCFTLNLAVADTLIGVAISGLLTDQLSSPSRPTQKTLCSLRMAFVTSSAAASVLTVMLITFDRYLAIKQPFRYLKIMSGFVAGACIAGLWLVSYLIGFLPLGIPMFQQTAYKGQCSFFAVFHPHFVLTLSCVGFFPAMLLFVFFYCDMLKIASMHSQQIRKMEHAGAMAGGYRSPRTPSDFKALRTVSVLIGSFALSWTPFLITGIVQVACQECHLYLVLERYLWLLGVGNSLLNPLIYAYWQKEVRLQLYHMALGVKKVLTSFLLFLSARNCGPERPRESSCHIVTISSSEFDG
As to the kind of experiment: Melanophore dispersion assay, RUP3 dose responses. In kind it is cell-based. The following applies: melanophores transfected with RUP3 expression vector. As to the method:
Melanophores are maintained in culture as reported by Potenza, M. N. and Lerner, M. R., in Pigment Cell Research, Vol. 5, 372-378, 1992 and transfected with the RUP3 expression vector (pCMV) using electroporation. Following electroporation, the transfected cells are plated into 96 well plates for the assay. The cells are then allowed to grow for 48 hours in order to both recover from the electroporation procedure and attain maximal receptor expression levels.
On the assay day, the growth medium on the cells is replaced with serum-free buffer containing 10 nM melatonin. The melatonin acts via an endogenous Gi-coupled GPCR in the melanophores to lower intracellular cAMP levels. In response to lowered cAMP levels, the melanophores translocate their pigment to the center of the cell. The net effect of this is a significant decrease in the absorbance reading of the cell monolayer in the well, measured at […].
After a 1-hour incubation in melatonin, the cells become completely pigment-aggregated. At this point a baseline absorbance reading is collected. Serial dilutions of test compounds are then added to the plate and compounds that stimulate RUP3 produce increases in intracellular cAMP levels. In response to these increased cAMP levels, the melanophores translocate their pigment back into the cell periphery. After one hour, stimulated cells are fully pigment-dispersed. The cell monolayer in the dispersed state absorbs much more light in the 600-650 nm range. The measured increase in absorbance compared to the baseline reading allows one to quantitate the degree of receptor stimulation and plot a dose-response curve.
The compounds in the above examples were screened using the melanophore dispersion assay, as described above.

Experiment [2] addresses T2, RUP3 (Mus musculus, UniProt Q7TQP3).
T2 construct: randomly grouped (n=5) to receive a RUP3 agonist (either Compound B3 or B124); from tissue; host or cells: whole animal (male C57bl/6J mice), in vivo
T2 sequence (Q7TQP3 1-335): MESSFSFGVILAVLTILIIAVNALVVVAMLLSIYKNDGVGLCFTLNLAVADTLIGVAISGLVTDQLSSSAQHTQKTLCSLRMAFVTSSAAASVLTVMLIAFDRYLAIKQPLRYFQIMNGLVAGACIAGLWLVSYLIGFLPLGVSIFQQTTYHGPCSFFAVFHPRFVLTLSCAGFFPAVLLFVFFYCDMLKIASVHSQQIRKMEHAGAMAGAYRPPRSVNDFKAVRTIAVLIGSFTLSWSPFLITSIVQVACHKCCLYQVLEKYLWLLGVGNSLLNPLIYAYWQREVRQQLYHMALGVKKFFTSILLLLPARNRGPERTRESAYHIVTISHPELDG
The experiment is described as follows: Oral glucose tolerance test (oGTT) in mice. In kind it is in vivo. Particulars: for Mean % Inhibition of Glucose Excursion: male C57bl/6J mice, dextrose 3 g/Kg oral; for Blood glucose after glucose challenge: male C57bl/6J mice, 1, 3 or 10 mg/Kg p.o. As to the method: Male C57bl/6J mice at approximately 8 weeks of age were fasted for 18 hours and randomly grouped (n=5) to receive a RUP3 agonist (either Compound B3 or B124) at 1, 3 or 10 mg/Kg. Compounds were delivered orally via a gavage needle (p.o., volume 10 mL/Kg). At time 0, levels of blood glucose were assessed using a glucometer (Elite XL, Bayer), and mice were administered either vehicle (20% hydroxypropyl-beta-cyclodextrin) or test compound. Thirty minutes after administration of test compound, levels of blood glucose were again assessed, and mice were administered dextrose orally at a dose of 3 g/Kg. Blood glucose measurements were then taken 20 min, 40 min, 60 min and 120 min after this time.

For orientation: EC50 means the concentration at which the effect is half-maximal.

Consider `Cc1ccc(Nc2cc(OC3CCN(C(=O)OC(C)(C)C)CC3)ncn2)cc1F` [Compound B16, 4-[6-(3-Fluoro-4-methyl-phenylamino)-pyrimidin-4-yloxy]-piperidine-1-carboxylic acid tert-butyl ester], for which the EC50 on RUP3 [1] amounted to 62 nM.

For the compound `CC(C)OC(=O)N1CCC(Oc2cc(Nc3ccc(S(C)(=O)=O)cc3F)ncn2)CC1` [Compound B3, 4-[6-(2-Fluoro-4-methanesulfonyl-phenylamino)-pyrimidin-4-yloxy]-piperidine-1-carboxylic acid isopropyl ester], the “Mean % Inhibition of Glucose Excursion” value at RUP3 [2] (1 mg/Kg p.o.) was 14.83%; at RUP3 [2] (3 mg/Kg p.o.), 22.03%; at RUP3 [2] (10 mg/Kg p.o.), 39.31%. Further, on RUP3 [2], the “Blood glucose after glucose challenge” value is recorded as “lowered blood glucose in a dose-dependent manner”.

Compound `CC(C)OC(=O)N1CCC(Oc2cc(Oc3ccc(Br)cc3F)ncn2)CC1` [Compound B143, 4-[6-(4-Bromo-2-fluoro-phenoxy)-pyrimidin-4-yloxy]-piperidine-1-carboxylic acidisopropyl ester] gave an EC50 at RUP3 [1] of 48 nM.

Turning to `CCCNc1ccc(Nc2cc(OC3CCN(C(=O)OC(C)C)CC3)ncn2)c(C)c1` [Compound B124, 4-[6-(2-Methyl-4-propylamino-phenylamino)-pyrimidin-4-yloxy]-piperidine-1-carboxylic acid isopropyl ester], the “Mean % Inhibition of Glucose Excursion” value on RUP3 [2] (1 mg/Kg p.o.) worked out at 0%; on RUP3 [2] (3 mg/Kg p.o.), 5.49%; at RUP3 [2] (10 mg/Kg p.o.), 21.94%. Besides, the “Blood glucose after glucose challenge” value on RUP3 [2] is recorded as “lowered blood glucose in a dose-dependent manner”.

As to `COc1ccc(Nc2cc(OC3CCN(C(=O)OC(C)(C)C)CC3)ncn2)cc1F` [Compound B21, 4-[6-(3-Fluoro-4-methoxy-phenylamino)-pyrimidin-4-yloxy]-piperidine-1-carboxylic acid tert-butyl ester], the EC50 on RUP3 [1] was determined as 128 nM.
